According to patent publication US20260337253A1, “INHIBITION OF GUT BACTERIA” (priority 2025, published 2026):
Non-standard residues stand in square brackets, D forms with d. Residues, ends and D or L forms follow the SMILES beside them. *: point of attachment. boroGlu = O=C(O)CC[C@H](N*)B(O)O; Gly(cPr) = N[C@H](C(=O)O)C1CC1

Target: His6-CylA-27-412 (Enterococcus faecalis, UniProt A0A2P6AWB8)
Test: In vitro co-operative pore formation assay (pyranine-encapsulated DOPC liposomes, mCylLS:mCylLL)
Format: biochemical
Description: In vitro pore formation assay for determining inhibitor effectiveness with high sensitivity. The assay uses pore formation as an indicator of toxin maturation. […] Pore formation dissipates a pH gradient between the interior of the liposome and the surrounding buffer increasing pyranine fluorescence.
Within the liposomes was a buffer of lower pH (6.0), and therefore any pore formation or membrane disruption would result in an increase in internal pH, which increases the fluorescence signal of the pyranine. In this way, pyranine fluorescence can be correlated to toxin activation allowing for the determination of EC50 values.
To a well in a black 96-well plate (200 μL) was added 90 μL high pH buffer (5 mM MES, 5 mM Tricine, 5 mM NaCl, pH 7.4) containing CylA (4 nM final concentration). After adding inhibitor, the mixture was incubated at room temperature for 10 min then freshly prepared (no more than 2 days old) pyranine encapsulated DOPC liposomes were added such that the total DOPC concentration was 80 μM. […] The resulting curves were max-min normalized yielding the fraction of permeabilized liposomes. […] This experiment was performed in duplicate or triplicate for each inhibitor at each concentration. […] Errors presented are those calculated by Origin 7 during the fitting process.

Sequence of His6-CylA-27-412 (A0A2P6AWB8 entry or part of it): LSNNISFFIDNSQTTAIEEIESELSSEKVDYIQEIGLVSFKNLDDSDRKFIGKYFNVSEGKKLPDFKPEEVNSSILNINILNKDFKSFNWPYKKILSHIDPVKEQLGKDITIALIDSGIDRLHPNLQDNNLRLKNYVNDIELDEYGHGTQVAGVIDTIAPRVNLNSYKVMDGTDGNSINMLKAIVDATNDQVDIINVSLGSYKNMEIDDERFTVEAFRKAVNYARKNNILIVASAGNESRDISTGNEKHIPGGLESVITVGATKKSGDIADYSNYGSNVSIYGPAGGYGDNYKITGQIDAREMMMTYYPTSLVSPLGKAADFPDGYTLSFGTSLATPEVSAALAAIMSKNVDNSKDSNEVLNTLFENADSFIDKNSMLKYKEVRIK

With `CC(=O)NCC(=O)N[C@@H](CC(=O)O)C(=O)N[C@H](C(=O)N[C@@H](CCC(N)=O)C(=O)N[C@@H](C)C(=O)N[C@@H](CCC(=O)O)B(O)O)C1CC1` [Compound 9, Ac-Gly-Asp-Cpg-Gln-Ala-Glu-BA] (Ac-GD[Gly(cPr)]QA-boroGlu) as the compound, how does the EC50 read?
Its EC50 is 12.5 ± 1.4 nM.
